The source of these data is the RepoRT retention time repository (doi:10.1016/j.chroma.2015.11.014).

This data set is described as follows: RP, Agilent ZORBAX Eclipse Plus C18, 150 × 2.1 mm, 3.5 µm, 40 °C, 0.3 mL/min, estimated dead time 1.1 min; A: water + 0.1% formic acid; B: acetonitrile + 0.1% formic acid; gradient (min/%B) 0/2 1/2 2/20 16.5/98 22/98. The note with it: stereoisomer not certain.

For `c1ccc2sc(NC3CCCCC3)nc2c1`, the LC retention time was 9.08 min.

Take `CCC(C)C1OC2(C=CC1C)CC1CC(CC=C(C)C(OC3CC(OC)C(OC4CC(OC)C(NC(C)=O)C(C)O4)C(C)O3)C(C)C=CC=C3COC4C(O)C(C)=CC(C(=O)O1)C34O)O2` (centres undefined): the LC retention time is 16.2 min.

For `CC(C)[P+](c1ccccc1)(c1ccccc1)c1ccccc1`, the LC retention time was 7.72 min.

Turning to `CCNc1nc(NC(C)(C)C)nc(S(C)=O)n1` (centres undefined), the LC retention time was 8.82 min.

Consider `O=C(O)CC(O)(CC(=O)O)C(=O)O`, for which the LC retention time is 2.08 min.

In the case of `CC(C)NCC(O)COc1ccc(CC(=O)O)cc1` (centres undefined), the LC retention time is 4.89 min.

On to `CNCC1CCCCC1(O)c1cccc(OC)c1` (centres undefined), for which the LC retention time was 6.25 min.

As for `CCC(C)C(N)C(=O)O` (centres undefined), the LC retention time was 2.36 min.

`O=C1CC2(CCCCC2)CO1`: the LC retention time was 9.65 min.

`OCC[P+](c1ccccc1)(c1ccccc1)c1ccccc1`: the LC retention time was 7.1 min.

For `CN1C2CCC1C(C(=O)O)C(OC(=O)c1ccccc1)C2` (centres undefined), the LC retention time is 5.64 min.

Turning to `On1nnc2ccccc21`, the LC retention time is 5.24 min.

For the compound `Cc1cc(C2CCCCC2)n(O)c(=O)c1`, the LC retention time is 4.49 min.

Turning to `Cc1ccccc1N=C(N)N=C(N)N`, the LC retention time is 4.67 min.

For `O=c1[nH]c(=O)c2ccccc2[nH]1`, the LC retention time was 5.39 min.

As for `CC[P+](c1ccccc1)(c1ccccc1)c1ccccc1`, the LC retention time is 7.39 min.

Take `CC(C)OP(=O)(Oc1ccccc1)Oc1ccccc1`: the LC retention time is 12.8 min.

In the case of `COc1ccc(C(=O)c2ccccc2O)c(O)c1`, the LC retention time is 11.8 min.

Consider `CCCCCCCCN1CCCC1=O`, for which the LC retention time is 12.6 min.

For the compound `c1ccc2nc3ccccc3cc2c1`, the LC retention time was 5.78 min.

As for `CC(=O)c1ccc(C(=O)O)cc1`, the LC retention time was 7.1 min.

Regarding `CCOC(=O)c1cnc(N)nc1N`, the LC retention time is 4.61 min.

Consider `CCN(CC)C(=O)Nc1ccc(OCC(O)CNC(C)(C)C)c(C(C)=O)c1` (centres undefined), for which the LC retention time is 6.53 min.

With `CCCCCCOC(=O)c1ccccc1C(=O)OCCCCCC`, the LC retention time was 18.1 min.

With `Nc1nc2c(ncn2C2OC(CO)C(O)C2O)c(=O)[nH]1` (centres undefined), the LC retention time is 3.15 min.

Take `CNC(=O)Oc1cccc2ccccc12`: the LC retention time was 10.1 min.

As for `CCN(CC)CCNC(=O)c1cc(S(C)(=O)=O)ccc1OC`, the LC retention time was 4.86 min.

Regarding `CN(C)CCC=C1c2ccccc2COc2ccccc21`, the LC retention time is 7.45 min.

For `O=C(OC1CC2CCC(C1)[N+]21CCCC1)C(O)(c1ccccc1)c1ccccc1` (centres undefined), the LC retention time was 7.41 min.

As to `COC1C(O)CC(=O)OC(C)CC=CC=CC(OC2CCC(N(C)C)C(C)O2)C(C)CC(CC=O)C1OC1OC(C)C(OC2CC(C)(O)C(O)C(C)O2)C(N(C)C)C1O` (centres undefined), the LC retention time is 5.77 min.

For the compound `O=P(Cc1ccccc1)(Cc1ccccc1)Cc1ccccc1`, the LC retention time was 11.6 min.

As for `C[N+](C)(C)Cc1ccccc1`, the LC retention time is 4.46 min.

In the case of `CC(=O)C1(O)CCC2C3CCC4=CC(=O)CCC4(C)C3CCC21C` (centres undefined), the LC retention time is 11.8 min.

For the compound `O=c1cc(-c2ccccc2)oc2cc(O)cc(O)c12`, the LC retention time was 11 min.

Take `O=c1[nH]c(=O)c2cn[nH]c2[nH]1`: the LC retention time was 2.85 min.

For the compound `O=C([O-])CCCC[P+](c1ccccc1)(c1ccccc1)c1ccccc1`, the LC retention time was 7.21 min.

As to `CCN(CC)C(=O)c1cccc(C)c1`, the LC retention time is 10.4 min.

As for `CCCCC(CC)COC(=O)C(C#N)=C(c1ccccc1)c1ccccc1` (centres undefined), the LC retention time is 17.7 min.

Consider `CC(O)C(=O)Nc1ccccc1` (centres undefined), for which the LC retention time was 6.61 min.

For `COc1cc(Cc2c(N)nc(N)[nH]c2=O)cc(OC)c1OC`, the LC retention time was 5.43 min.

On to `O=S(=O)(O)NC1CCCCC1`, for which the LC retention time is 5.07 min.

Take `COCCN(C(=O)CS(=O)(=O)O)c1c(C)cccc1C`: the LC retention time is 6.76 min.

Take `CCCCCCCCOc1ccc(C(=O)c2ccccc2)c(O)c1`: the LC retention time is 19 min.

On to `CCCC[P+](CCCC)(CCCC)CCCC`, for which the LC retention time is 9.65 min.

On to `Cn1c(=O)c2[nH]cnc2n(C)c1=O`, for which the LC retention time is 4.94 min.

Take `O=C1c2ccccc2C(=O)C1c1nc2ccccc2cc1O`: the LC retention time is 14.7 min.

Turning to `C#CC1(O)CCC2C3CCc4cc(OC)ccc4C3CCC21C` (centres undefined), the LC retention time was 14.5 min.

With `CNC(=C[N+](=O)[O-])NCCS(=O)Cc1ccc(CN(C)C)o1` (centres undefined), the LC retention time was 2.94 min.

For `CC12C=CC(=O)C=C1CCC1C2C(O)CC2(C)C1CCC2(O)C(=O)CO` (centres undefined), the LC retention time is 8.43 min.

With `COC[P+](c1ccccc1)(c1ccccc1)c1ccccc1`, the LC retention time was 7.5 min.

In the case of `O=P(c1ccccc1)(c1ccccc1)c1ccccc1`, the LC retention time is 10.5 min.

`Nc1cccc2[nH]c(-c3ccccc3)nc12`: the LC retention time was 5.28 min.

As to `C=C(c1ccc(C(=O)O)cc1)c1cc2c(cc1C)C(C)(C)CCC2(C)C`, the LC retention time was 17.6 min.

As to `CNC(=C[N+](=O)[O-])NCCSCc1ccc(CN(C)C)o1`, the LC retention time was 4.83 min.

Regarding `COP(=O)(OC)OC`, the LC retention time is 4.97 min.

On to `CC(C)(C)NCC(O)COc1cccc2c1CC(O)C(O)C2` (centres undefined), for which the LC retention time is 5.13 min.

Turning to `COc1cccc(C2(O)CCCCC2CN(C)C)c1` (centres undefined), the LC retention time was 6.21 min.

`Cc1cc(=O)n(-c2ccccc2)n1C`: the LC retention time was 6.26 min.

Regarding `Cc1cc(C)c(C(=O)P(=O)(c2ccccc2)c2ccccc2)c(C)c1`, the LC retention time is 14.1 min.

Take `CCNC(=O)NC1CCCCC1`: the LC retention time was 7.7 min.

On to `COc1cc(C(=O)O)cc(OC)c1OC`, for which the LC retention time is 7.63 min.

Regarding `CCP(=O)(c1ccccc1)c1ccccc1`, the LC retention time is 8.82 min.

Regarding `CCCCC[N+](CCCCC)(CCCCC)CCCCC`, the LC retention time is 11.3 min.

In the case of `Nc1ccc(S(=O)(=O)Nc2nccs2)cc1`, the LC retention time is 5.37 min.

With `Cc1ncc(CO)c(CO)c1O`, the LC retention time was 2.11 min.

With `COC(=O)CCCCCCCCC(=O)OC1CC(C)(C)N(C)C(C)(C)C1`, the LC retention time is 8.34 min.

As to `CNC(=O)Oc1cccc2c1OC(C)(C)C2`, the LC retention time was 9.75 min.

As for `COCC(O)c1ccc(OCC(O)CNC(C)C)cc1` (centres undefined), the LC retention time is 5.06 min.

Take `CCC1(c2cccc(O)c2)CCCCN(C)C1` (centres undefined): the LC retention time was 5.64 min.

As for `C#CC[P+](c1ccccc1)(c1ccccc1)c1ccccc1`, the LC retention time was 7.93 min.

As to `CCCCCCCCCC(=O)N(C)C`, the LC retention time is 13.6 min.

`Nc1ccc(S(=O)(=O)Nc2ccccn2)cc1`: the LC retention time was 5.55 min.

For the compound `COc1ccccc1-c1nc2ccccc2[nH]1`, the LC retention time is 6.22 min.

`CC(C(=O)O)c1cccc(C(=O)c2ccccc2)c1` (centres undefined): the LC retention time was 10.9 min.

Consider `CCN(C)C(=O)Oc1cccc(C(C)N(C)C)c1` (centres undefined), for which the LC retention time was 6.08 min.

Turning to `CCOc1ccc(C[P+](c2ccccc2)(c2ccccc2)c2ccccc2)cc1`, the LC retention time is 9.45 min.

As for `CC(=O)Nc1ccc(C(=O)O)cc1`, the LC retention time is 5.59 min.

On to `CCOCCOC(=O)Nc1ccc(C)c(NC(=O)OCCOCC)c1`, for which the LC retention time is 9.91 min.

Regarding `CN(C)[P+](On1nnc2ccccc21)(N(C)C)N(C)C`, the LC retention time was 5.97 min.

On to `c1ccc([P+](c2ccccc2)(c2ccccc2)C2CC2)cc1`, for which the LC retention time was 7.79 min.

Regarding `CC12CCC3c4cc(O)c(O)cc4CCC3C1CCC2=O` (centres undefined), the LC retention time was 9.98 min.

For `O=C1NS(=O)(=O)c2ccccc21`, the LC retention time was 5.2 min.

With `Nc1ccc(O)c(C(=O)O)c1`, the LC retention time was 2.18 min.

As to `COc1ccc2c(c1)CCC1C2CCC2(C)C(=O)CCC12` (centres undefined), the LC retention time was 10.5 min.

In the case of `CC(=O)Nc1ccccc1`, the LC retention time was 6.74 min.

Take `CCN1C=CN(C)C1`: the LC retention time is 1.34 min.

With `CCCCCCCCc1ccc(CCC(N)(CO)CO)cc1`, the LC retention time is 10.2 min.

In the case of `CCCCCCCCN`, the LC retention time was 6.9 min.

For the compound `COC(=O)C1C2CC3c4[nH]c5cc(OC)ccc5c4CCN3CC2CC(OC(=O)c2cc(OC)c(OC)c(OC)c2)C1OC` (centres undefined), the LC retention time was 8.6 min.

`CNCC(O)c1cccc(O)c1` (centres undefined): the LC retention time is 2.73 min.

Turning to `O=C(c1ccccc1)c1ccc(O)c(O)c1O`, the LC retention time is 9.4 min.

Turning to `CCCCP(=O)(O)O`, the LC retention time is 4.77 min.

As for `CC(C(=O)O)c1ccc(CC(C)(C)O)cc1` (centres undefined), the LC retention time is 8.21 min.

On to `CC(C)c1ccccc1OP(=O)(Oc1ccccc1)Oc1ccccc1C(C)C`, for which the LC retention time was 17.4 min.

Consider `CCN(CC)C(=O)c1cccc(C(=O)O)c1`, for which the LC retention time is 7.36 min.

For the compound `CCCCCCCC[P+](CCCCCCCC)(CCCCCCCC)CCCCCCCC`, the LC retention time was 16.4 min.

As to `Nc1ncnc2c1ncn2CCOCP(=O)(O)O`, the LC retention time was 2.12 min.

For `CCC(CC)COC(=O)C(C)NP(=O)(OCC1OC(C#N)(c2ccc3c(N)ncnn23)C(O)C1O)Oc1ccccc1` (centres undefined), the LC retention time is 9.97 min.

`NC(=O)N1c2ccccc2C=Cc2ccccc21`: the LC retention time is 8.87 min.

As for `O=S(=O)(O)c1nc2ccccc2s1`, the LC retention time was 6.5 min.

Consider `Cc1ccc(N)cc1N`, for which the LC retention time was 2.14 min.

`O=C(CO)Nc1ccccc1`: the LC retention time was 5.9 min.

As for `O=C1c2ccccc2C(=O)C1c1ccccc1`, the LC retention time is 14.2 min.

Consider `CC(=O)C1CCC2C3CCC4=CC(=O)CCC4(C)C3C(O)CC12C` (centres undefined), for which the LC retention time was 10.3 min.
